In brackets after ≈: the same amount, converted by molar mass. Like-named read-outs stand apart in the source and are kept apart here.

What is called MIC is the lowest concentration found to suppress growth.

Data set [1] concerns AI-2 reporter strain Vibrio harveyi BB170. As to the kind of experiment: Induction of bioluminescence in the AI-2 reporter strain (quorum sensing). The class given is cell-based. The procedure: Bright overnight culture was diluted 1:5000 and the bioluminescence was traced along growth of the diluted bacterial culture. BNO-1 in tested concentrations was added at start of the bacterial growth. For calculation of fold induction was used the bioluminescence levels at 3 hr after start of the growth.
(§1) Luminescence was monitored by Lumac/3M Biocounter M2010, Netherlands. Culture density was measured as CFU on selective solid LM (L-marine) medium per ml of culture. Relative luminescence (“bioluminescence” in figures) was calculated as quotient of luminescence and culture density and expressed in relative light units (RLU, count/10^6 CFU).
(§2) Fold induction was calculated as relation between induced by BNO-1 and not induced relative luminescence. A measure of inhibition was defined as relation of induced by AI-2 relative luminescence in the presence and in the absence of BNO-2.

A further data set deals with S. mutans ATCC 27351. As to the kind of experiment: Minimal inhibitory concentration (MIC), turbidity of overnight growth. The class given is cell-based. As to conditions: for MIC: Streptococcus mutans, read-out: MIC Mean. The procedure:
Sterile microculture dishes containing multiple wells were used to determine the minimal inhibitory concentration MIC) of eight derivatives of oxazborolidines. Each well contained 120 μl of brain heart infusion medium, 15 μl of an overnight suspension of S. mutans ATCC 27351 adjusted to 1 OD540 nm and 15 μl of the tested compound. Each compound was tested at five different concentrations between 0-50 mM. Each experiment was repeated twice. These cultures were incubated at 37° C. in atmosphere enriched in 5% CO2 for 24 hours. Bacteria growth was determined as turbidity of the over night growth and was determined by computerized ELISA reader (Thermomax microplate reader, Molecular Devices, USA) at 650 nm. Control cultures of bacteria with no oxazaborolidines added and media broth with the oxzaborilidines added but with no bacteria were conducted.

In data set [2] the test system is AI-2 reporter strain Vibrio harveyi BB170. The data set is described as follows: Inhibition of AI-2-induced bioluminescence (quorum sensing). As to conditions: added together with exogenous AI-2. The class given is cell-based. How it is done: Bright overnight culture was diluted 1:5000 and the bioluminescence was traced along growth of the diluted bacterial culture at the presence of AI-2 which was added at start of the bacterial growth in the induced concentration. BNO-2 in tested concentrations was added at start of the bacterial growth. The residual bioluminescence is expressed as part of maximal, AI-2-inducted and non-inhibited bioluminescence. For the calculation was used bioluminescence level at 2.5 hr after start of the growth.
as §1, §2

The subject of data set [3] is bacterial adhesion to hydroxyapatite (HA) beads. As to the kind of experiment: Adhesion of radioactively labeled bacteria to hydroxyapatite beads. The class given is cell-based. As to conditions: 60 mM. The procedure: 40 mg samples of hydroxyapatite (HA) beads (Ceramic hydroxyapatite type I, 80 um, Bio-Rad Laboratories, Hercules, Calif., USA)) (surface area, 0.63 cm^2/mg) were equilibrated with 3 washes of buffered KCl to which 250 μl of labeled radioactive bacteria (prepared as described above), 400 μl of the tested boronic compound and 50 μl of 700 mM sucrose (in KCl buffer solution) were added. The mixture was incubated for 60 min at 37 C with gentle rotation. At the end of the incubation period, the beads were washed 3 times with buffered KCl for removal of unbound components, especially the non-adsorbed labeled bacteria, and then rinsed with 2 ml ethanol into vials containing 10 ml scintillation fluid (Ecoscint A, National Diagnostics, Manville, N.J.). The amount of radioactively labeled bacteria adsorbed onto the HA beads was measured by scintillation counting (BETAmatic scintillation counter (Koutron®, Basel, Switzerland). Results are expressed as percent of bacterial adhesion in comparison to a control group containing no agent.

A short description of data set [4]: Effect of pH on the oxazaborolidine derivatives (11B NMR). The class given is physicochemical. As to conditions: pH=10.8. From the text:
At pH=10.8, the free n-butylboronic acid has a chemical shift of 19.974 ppm, while BNO3, the B-butyl containing derivative gives two peaks, one at 24.868 ppm (90%) which is the intermediate and a peak at 6.8 ppm (10%) that belongs to the mentioned above complex. At further basic conditions, a peak at 5.2 ppm exist which indicate a complete conversion to an ate-complex moiety.
On the other hand, the B-phenyl containing derivatives are converted to the ate-complex once they are fully dissolved in H2O, the ate-complex appears at 5.461 ppm in the ^11B NMR.

Where [5] appears, read: ATCC27351, S. mutans, 24 hours, 37° C.

As for `CC1C(c2ccccc2)OB(c2ccccc2)N1C` (stereo not drawn) [BNO1, 3,4-dimethyl-2,5-diphenyl-1,3,2-oxazaborolidine], the “induction of bioluminescence of Vibrio harveyi BB170” value in data set [1] (dose dependent, sensor 1− sensor 2+) was “induced”. Moreover, the “induction of bioluminescence in mutants with sensor 2−” value in data set [1] (sensor 2− mutants) is given as “do not react”. In the data set with S. mutans ATCC 27351, the “antibacterial efficacy against S. mutans (MIC based, in words)” value (shortened to “antibacterial efficacy against S. mutans”) was “most active”. For the same compound, the “MIC Range” value in the data set on S. mutans ATCC 27351 (S. mutans, 24 hours, 37° C.) was 0.77 to 2.33 mM. Besides, in the data set with S. mutans ATCC 27351 (ATCC27351, 24 h), the MIC came to 1550 µM (≈ 389 µg/mL).
Regarding `CC1(C)COB(c2ccccc2)N1` [BNO2, 4,4-dimethyl-2-phenyl-1,3,2-oxazaborolidine], in data set [2], the “inhibition of the ability of exogenous AI-2 to induce bioluminescence” value is recorded as “strongly inhibited”. Also, in data set [3], the “promotion of bacterial adhesion” value is 37%. Moreover, the “MIC Range” value against S. mutans ATCC 27351 (S. mutans, 24 hours, 37° C.) fell in the range of 2 to 10 mM. Moreover, the MIC in the data set with S. mutans ATCC 27351 (setting [5]) is 6000 µM (≈ 1050 µg/mL).
As to `CCCCB1NC(C)(C)CO1` [BNO3, 2-butyl-4,4-dimethyl-1,3,2-oxazaborolidine], the “reduction of bacterial capability to adhere to hydroxyapatite surface” value in data set [3] is 63%. For the same compound, the “MIC Range” value against S. mutans ATCC 27351 (S. mutans, 24 hours, 37° C.) was in the range of 2.25 to 4.5 mM. The MIC with S. mutans ATCC 27351 (setting [5]) worked out at 3380 µM (≈ 524 µg/mL). In data set [4], the “share of ate-complex (11B NMR peak at 6.8 ppm)” value turned out to be 10% and the “share of intermediate (11B NMR peak at 24.868 ppm)” value is 90%.
As to `CC1NB(c2ccccc2)OC1c1ccccc1` (stereo not drawn) [BNO4, 4-methyl-2,5-diphenyl-1,3,2-oxazaborolidine], in the data set on S. mutans ATCC 27351 (S. mutans, 24 hours, 37° C.), the “MIC Range” value fell in the range of 0.90 to 1.75 mM. Moreover, the MIC in the data set with S. mutans ATCC 27351 (setting [5]) was 1330 µM (≈ 315 µg/mL).
For `CCCCB1OC(c2ccccc2)C(C)N1C` (stereo not drawn) [BNO5, 2-butyl-3,4-dimethyl-5-phenyl-1,3,2-oxazaborolidine], the “antibacterial efficacy against S. mutans” value with S. mutans ATCC 27351 was “most active”. Moreover, in the data set with S. mutans ATCC 27351 (S. mutans, 24 hours, 37° C.), the “MIC Range” value was 0.26 to 0.80 mM. In addition, the minimum inhibitory concentration (MIC) with S. mutans ATCC 27351 (setting [5]) was 530 µM (≈ 123 µg/mL).
With `CCCCB1NC(C)C(c2ccccc2)O1` (stereo not drawn) [BNO6, 2-butyl-4-methyl-5-phenyl-1,3,2-oxazaborolidine], in the data set on S. mutans ATCC 27351 (S. mutans, 24 hours, 37° C.), the “MIC Range” value lay in the range of 1.90 to 3.75 mM. For the same compound, the minimum inhibitory concentration (MIC) with S. mutans ATCC 27351 (setting [5]) was found to be 2830 µM (≈ 614 µg/mL).
For the compound “[(2-)-N,O,O′[2,2′-Iminobis[ethanolato]]]-2-n-butylboron [BNO7]”, the “antibacterial efficacy against S. mutans” value in the data set on S. mutans ATCC 27351 is “weakest activity”. Further, in the data set with S. mutans ATCC 27351 (S. mutans, 24 hours, 37° C.), the “MIC Mean” value is 6750 µM and the “MIC Range” value was in the range of 4.5 to 9.0 mM.
Taken in the same sequence, the figures for “[(2-)-N,O,O′[2,2′-Iminobis[ethanolato]]]-2-phenylboron [BNO8]” were “weakest activity”, 6750 µM and 4.5-9. mM.
